Results on four compounds are retold here after patent US20170266192A1, “METHODS FOR IMPROVING DIAPHRAGM FUNCTION” (CYTOKINETICS, INC., priority 2012, published 2017).

In test [1] the test system is permeabilized single fibers from rat diaphragm muscle. Briefly: Skinned fiber tension at constant calcium, rat diaphragm. Format: cell-based. How it is done:
(§1) Muscle tissue for in vitro skinned fiber studies were prepared using a protocol based on Lynch and Faulkner (Am J Physiol 275:C1548-54 (1998)). Briefly, rat diaphragm or rabbit psoas muscles were rapidly dissected and rinsed with physiological saline. Muscles were then incubated in skinning solution (125 mM K-propionate, 20 mM imidazole, 5 mM EGTA, 2 mM MgCl2, 2 mM ATP, pH 7.0) supplemented with 0.5% Brij 58 (Sigma Chemicals, St. Louis, Mo.) or 0.5% Triton X-100 (Sigma Chemicals, St. Louis, Mo.) for 30 minutes at 4° C. Muscles were then placed in storage solution (125 mM K-propionate, 20 mM imidazole, 5 mM EGTA, 2 mM MgCl2, 2 mM ATP, glycerol 50%, pH 7.0) at −20° C. Muscles were incubated in storage solution at −20° C. for later use.
(§2) For skinned fiber analysis, single muscle fibers were dissected from larger segments of tissue in rigor buffer at 4° C. (20 μM MOPS, 5 μM MgCl2, 120 μM potassium acetate, 1 μM EGTA, pH 7.0). […]
(§3) The functional effects of the fast skeletal muscle troponin activator, Compound A (6-bromo-1-(ethylpropyl)imidazo[4,5-b]pyrazin-2-ol), on skeletal muscle force were assessed under isometric conditions in permeabilized single fibers from rabbit psoas muscle and rat diaphragm muscle according to the procedure of Example 1.

Test [2] deals with permeabilized single fibers from rabbit psoas muscle. Briefly: Skinned fiber tension at constant calcium, rabbit psoas. It counts as cell-based. How it is done: as §1, §2, §3
The next test deals with SOD1 mice. In words: Unrestrained whole body plethysmography (UWBP). Format: in vivo, mouse. The settings on record: 10 mg/kg. How it is done:
Wild type (WT) and SOD1 mice were dosed with vehicle or 10 mg/kg Compound C and placed in plethysmography chambers for 30 minutes of acclimatization. After acclimatization, respiratory parameters, including tidal volume, respiratory rate, and minute ventilation, were monitored for 10 minutes at room air. Upon completion of baseline room air measurements, animals were exposed to a 5% CO2 gas mixture for 30 minutes. After the 5% CO2 exposure, animals were re-exposed to room air and monitored.

The test system of test [3] is rat skinned diaphragm fibers. In words: Force-pCa skinned muscle fiber analysis. It counts as cell-based. How it is done: as §1
For skinned fiber analysis, single muscle fibers were dissected from larger segments of tissue in rigor buffer at 4° C. ([…], pH 7.0). They were then suspended between a 400 A force transducer (Aurora Scientific, Ontario, Canada) and a fixed post and secured with 2-4 μl of a 5% solution of methylcellulose in acetone. Fibers were then incubated at 10° C. in a relaxing buffer ([…], 1 mg/ml creatine kinase, 1 mM DTT, 44 ppm antifoam, pH 7.0) and baseline tension adjusted. Tension was generated in each fiber by changing fiber buffer over to relax buffer supplemented with 1 mM EGTA and one or more concentrations of aqueous calcium chloride. Test articles were added to these buffers in a 1% DMSO solution.
Force production was measured in rat skinned diaphragm fibers exposed to increasing concentrations of calcium in the presence and absence of the fast skeletal muscle troponin activator Compound B, (3-(2-(((trans)-3-fluoro-1-(3-fluoropyridin-2-yl)cyclobutyl)methylamino)pyrimidin-5-yl)benzamide), according to the procedure of Example 1.
Force production was measured in rat skinned diaphragm fibers exposed to increasing concentrations of calcium in the presence and absence of the fast skeletal muscle troponin activator Compound C, 1-(ethylpropyl)-6-ethynylimidazo[4,5-b]pyrazin-2-ol, according to the procedure in Example 1.

Test [4] concerns WT and SOD1 mouse diaphragm muscle. In words: Diaphragm force-frequency relationship in a mouse ALS model. As to conditions: frequencies up to 30 Hz; dose-dependent. As to the method:
(§4) Diaphragm contractile force was measured by electrical field stimulation in an organ bath system (Radnoti) based on a standard operating protocol adapted from the Treat NMD website (http://www.treat-nmd.eu/downloads/file/sops/dmd/MDX/DMD M.1.2.002.pdf). The diaphragm and the last floating rib from wild type (WT) and SOD1 mice were excised, rinsed in physiological saline, and placed in a temperature controlled water-jacketed chamber (26-27° C.) containing Krebs-Henseleit Buffer (118 mM NaCl, 10 mM glucose, 4.6 mM KCl, 1.2 mM KH2PO4, 1.2 mM MgSO4*7H2O, 24.8 mM NaHCO3, 2.5 mM CaCl2, 50 mg/L tubocurarine, 50 U/L insulin, pH:7.4) that was continuously aerated with 95% O2/[…]. After 10 minutes of equilibration, vertical strips spanning the floating rib to the central tendon were cut from diaphragms. Braided silk sutures were tied at the central tendon and floating rib and attached to a force transducer between two platinum electrodes. Diaphragm strips were set to a length that produced maximum twitch tension (Lo). The force-frequency profile of the muscle was obtained by stimulating the muscle at frequencies between 10-150 Hz (Grass Stimulator, 800 ms train duration, 0.6 ms pulse width). Compound C was suspended in DMSO and directly added into the bath.

Test [5] concerns rat diaphragm muscle. Briefly: Force-frequency relationship, ex vivo electrical field stimulation. How it is done: as §4, with “SHAM” for “wild type (WT)”, “LAD rats” for “SOD1 mice”, “width).” for “width). Compound C was suspended in DMSO and directly added into the bath.”
Force production was measured in rat diaphragm muscle ex vivo by electrical field stimulation in the presence and absence of Compound B according to the procedure of Example 6. Compound B was suspended in DMSO and added directly to the bath.
Force production was measured in rat diaphragm muscle ex vivo by electrical field stimulation in the presence and absence of fast skeletal muscle troponin activator Compound D, 1-(2-(((trans)-3-fluoro-1-(3-fluoropyridin-2-yl)cyclobutyl)methylamino)pyrimidin-5-yl)-1H-pyrrole-3-carboxamide according to the procedure of Example 6. Compound D was suspended in DMSO and added directly to the bath.

Test [6] deals with skinned diaphragm fibers from SHAM and LAD rats. In words: Force-pCa skinned muscle fiber analysis in a rat model of HF. The settings on record: 3 μM. Format: cell-based. As to the method: as §1
For skinned fiber analysis, single muscle fibers were dissected from larger segments of tissue in rigor buffer at 4° C. (20 μM MOPS, 5 μM MgCl2, 120 μM potassium acetate, 1 μM EGTA, pH 7.0). They were then suspended between a 400 A force transducer (Aurora Scientific, Ontario, Canada) and a fixed post and secured with 2-4 μl of a 5% solution of methylcellulose in acetone. […]
Force production was measured in skinned diaphragm fibers from SHAM and LAD rats exposed to increasing concentrations of calcium in the presence and absence of Compound D according to the procedure of Example 1.

Test [7] concerns rat diaphragm muscle. In words: Diaphragm repeated contraction fatigue analysis. As to conditions: 5 uM and 10 uM, dose-dependent; 20 Hz stimulation, 10 minutes. As to the method:
as §4, with “SHAM” for “wild type (WT)”, “LAD rats” for “SOD1 mice”, “The force-frequency profile of the muscle was obtained by stimulating the muscle at frequencies between 10-150 Hz (Grass Stimulator, 800 ms train duration, 0.6 ms pulse width). Compound C was suspended in DMSO and directly added into the bath.” left out
Following the procedure of Example 7, diaphragms were subjected to repeated electrical stimulations (20 Hz stimulation, 330 ms train duration, 1 train/sec) over a period of 10 minutes. Force production was measured over 600 contractions in rat diaphragm muscle ex vivo by field electrical stimulation in the presence and absence of Compound B (5 uM and 10 uM).

[8] abbreviates: skinned fibers, constant calcium, 10 nM-40 μM.
The mark [9] stands for this setting: 30 μM, submaximal frequencies of electrical stimulation.

For orientation: EC50 means the concentration at which the effect is half-maximal. Regarding `CCC(CC)n1c(O)nc2ncc(Br)nc21` [Compound A, 6-bromo-1-(ethylpropyl)imidazo[4,5-b]pyrazin-2-ol], the EC50 in test [1] (rat diaphragm fibers, constant free calcium 3.16 μM (pCa=5.5), n=4, read-out: EC50, increase in skinned fiber tension) came to 1200 nM; in test [2] (rabbit psoas fibers, constant free calcium 1.78 μM (pCa=5.75), n=3, read-out: EC50, increase in skinned fiber tension), 590 nM. Moreover, the “tension in rat diaphragm muscle” value in test [1] (setting [8]) is given as “increased tension”. In test [2] (setting [8]), the “tension in rabbit psoas muscle” value is recorded as “increased tension”.
For `C#Cc1cnc2nc(O)n(C(CC)CC)c2n1` [Compound C, 1-(ethylpropyl)-6-ethynylimidazo[4,5-b]pyrazin-2-ol], the “tidal volume at recovery compared to vehicle-treated animals” value with SOD1 mice (after 30 minute exposure to 5% CO2) was “significantly higher tidal volume”. Further, the “tidal volume at baseline compared to vehicle-treated animals” value in the test with SOD1 mice (room air) is reported as “significantly higher tidal volume”. Besides, the “pCa at 50% of Maximum Tension, Log [Ca^2+] (M)” value in test [3] (0.1 uM compound, vehicle −5.43 ± 0.054) is −5.59 ± 0.007 M; in test [3] (1 uM compound, vehicle −5.43 ± 0.054), −6.19 ± 0.018 M; in test [3] (10 uM compound, vehicle −5.43 ± 0.054), −6.74 ± 0.28 M. Also, in test [3] (10 μM Compound C), the “increase in calcium sensitivity compared to vehicle-only muscle fibers” value came to 10 fold. For the same compound, the “force production in SOD1 diaphragm muscle compared to vehicle-only” value in test [4] is reported as “significantly more force”. For the same compound, the “force production in WT diaphragm muscle compared to vehicle-only” value in test [4] is “significantly more force”.
Regarding `NC(=O)c1ccn(-c2cnc(NCC3(c4ncccc4F)CC(F)C3)nc2)c1` (stereo not drawn) [Compound D, 1-(2-(((trans)-3-fluoro-1-(3-fluoropyridin-2-yl)cyclobutyl)methylamino)pyrimidin-5-yl)-1H-pyrrole-3-carboxamide], in the test on rat diaphragm muscle [5] (setting [9]), the “force in HF (LAD) diaphragms” value is on record as “significantly increased force” and the “force in SHAM diaphragms” value is given as “significantly increased force”. Further, in test [6], the “Ca^2+ sensitivity of HF diaphragm fibers” value is “significantly increased Ca^2+ sensitivity” and the “Ca^2+ sensitivity of SHAM diaphragm fibers” value is “significantly increased Ca^2+ sensitivity”.
As to `NC(=O)c1cccc(-c2cnc(NC[C@]3(c4ncccc4F)C[C@H](F)C3)nc2)c1` [Compound B, 3-(2-(((trans)-3-fluoro-1-(3-fluoropyridin-2-yl)cyclobutyl)methylamino)pyrimidin-5-yl)benzamide], the “force production compared to vehicle-only diaphragms” value in the test with rat diaphragm muscle [5] (frequencies up to 30 Hz of electrical stimulation) was “significantly more force”. In addition, the “force production over 600 contractions compared to vehicle-only diaphragms” value in the test with rat diaphragm muscle [7] is listed as “significantly more force”. Moreover, the “pCa at 50% of Maximum Tension, Log [Ca^2+] (M)” value in test [3] (0.5 uM compound, vehicle −5.43 ± 0.03) was −5.78 ± 0.008 M; in test [3] (1 uM compound, vehicle −5.43 ± 0.03) it was −5.90 ± 0.03 M; in test [3] (10 uM compound, vehicle −5.43 ± 0.03), −6.46 ± 0.03 M. For the same compound, the “increase in calcium sensitivity compared to vehicle-only muscle fibers” value in test [3] (10 μM Compound B) was found to be 10 fold.
